Assay results reported in PMC3858566, “Identification of a novel peptide that blocks basic fibroblast growth factor-mediated cell proliferation” (Oncotarget, 2013).
Blank lines part the entries; values can stand above or below the molecule they belong to. Where no end group is shown, it is not given here.

How the values were obtained:
[1] = test system: B16-F10 murine melanoma cells; settings: 48 h, 10 nM
Description: Cells were seeded in 96-well plates (5 × 10^3 cells/well) in DMEM containing 10% FBS. After incubation at 37°C for 24 h, the culture medium was replaced by DMEM containing 0.4% FBS to starve the cells for 24 h. The medium was then replaced by DMEM containing 30 ng/ml bFGF, or 30 ng/mL bFGF plus peptide at various concentrations. After culturing for 48 h, the number of viable cells was determined by the methylthiazoletetrazolium (MTT) method as previously described [5].

[2] = test system: bFGF receptors on Balb/c 3T3 cells; assay: Receptor binding assay (125I-bFGF competition, Scatchard analysis)
Description: The recombinant bFGF was iodinated by the modified chloramine-T method. Briefly, bFGF (5 μg/50 μ1 in 0.5 M phosphate buffer, pH 7.4) was incubated with chloramine-T (20 μg/10 µl of phosphate buffer) and ^125I-labeled sodium (1.12 mCi/10 μ1) at room temperature for 55 sec. The reaction was immediately terminated by the addition of sodium metabisulflte (250 μg/200 μl) and 1% potassium iodide (100 μl), and the mixture was applied to a Sephadex G-50 column (1×20 cm) preequilibrated in 50 mM phosphate buffer containing 0.1% BSA to separate ^125I-labeled bFGF from free ^125I.
Confluent Balb/c 3T3 cells (0.5×10^6/well) were incubated with binding buffer (DMEM, 20mM HEPES, pH7.4) containing ^125I-bFGF (50000 cpm) and different concentrations of unlabeled ligand (bFGF or the synthetic peptide) for 2.5 h at 4°C. For nonspecific binding, cells were incubated with ^125I-bFGF (50000 cpm) and an excess of unlabeled bFGF (200 nM). The cells were washed with (3 × 1 ml) cold PBS (50 mM, PH7.4), and lysed with 1% Triton X-100 (500 μl). The radioactivity of the extracts was measured in a γ counter. Specific binding was determined as the difference between total and nonspecific binding, and data were analyzed by Scatchard analysis.

B16-F10 cells = assay: Flow cytometric analysis of cell cycle; type: cell-based, murine; settings: 48 h
Description: Cells were starved for 24 h, and treated with 30 ng/ml bFGF or 30 ng/mL bFGF plus serially-diluted peptides for 48 h. After fixing in 70% ice-cold ethanol for 30 min at 4 °C and washing with PBS for 3 times, cells were stained with propidium iodide (PI) in the dark at room temperature for 30 min. The ModFit DNA analysis program was applied to analyze the percentages of cells at various phases of the cell cycle.

[3] = test system: bFGF receptors on Balb/c 3T3 cells; settings: range of values previously published; cited from earlier work
[4] = biological target: T1, bFGF receptors (FGFR1c/FGFR2c on Balb/c 3T3 cells) (Mus musculus, UniProt P16092); assay: 125I-bFGF competition binding on cells
T1 chain: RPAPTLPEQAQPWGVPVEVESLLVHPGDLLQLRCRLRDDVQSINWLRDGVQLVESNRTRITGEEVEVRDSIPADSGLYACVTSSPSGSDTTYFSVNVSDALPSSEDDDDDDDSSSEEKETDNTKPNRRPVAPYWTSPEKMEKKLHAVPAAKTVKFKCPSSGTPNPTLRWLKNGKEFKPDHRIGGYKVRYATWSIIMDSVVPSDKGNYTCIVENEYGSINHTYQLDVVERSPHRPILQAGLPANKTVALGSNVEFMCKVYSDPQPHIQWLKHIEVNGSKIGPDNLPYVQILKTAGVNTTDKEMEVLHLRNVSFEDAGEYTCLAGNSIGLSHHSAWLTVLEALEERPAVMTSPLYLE

[5] = 30 ng/ml bFGF alone, mean ± SD of 3 independent experiments

Molecule: LSPPRYPGGGS-NH2 [P9 peptides]
inhibition of bFGF-stimulated proliferation [1]: ~90%

Molecule: ^125I-bFGF: recombinant bFGF iodinated by the modified chloramine-T method
receptor population, 125I-bFGF binding, without P9 [2]: approximately 9,600 sites/cell

Molecule: basic fibroblast growth factor [bFGF]
G0/G1 (B16-F10 cells; [5]): 26.45 ± 1.01%
G2/M (B16-F10 cells; [5]): 7.46 ± 0.56%
S (B16-F10 cells; 30 ng/ml bFGF alone, mean ± SD of 3 independent experiments, * P<0.01 vs control group): 66.09 ± 1.22%
effect of bFGF on cell cycle (B16-F10 cells; bFGF alone, 30 ng/ml): significantly increased the percentage of S phase cells, and decreased the ratio of G0/G1 phase cells
receptor sites per cell of high affinity bFGF receptors, previously published [3]: 0.2-10 ×10^4 sites/cell

IC50 [4]: ~2.5 nM
B1: P9 peptide (peptide)
chain: LSPPRYPGGGS-NH2
